# Reference: patent US20220098154A1 (IDEAYA Biosciences, Inc., priority 2019, published 2022)
# Target: T1, Pol theta polymerase domain (residues 1819-2590) (Homo sapiens, UniProt O75417)
# T1 construct: Pol theta polymerase domain (residues 1819-2590)
# T1 sequence (O75417 1819-2590): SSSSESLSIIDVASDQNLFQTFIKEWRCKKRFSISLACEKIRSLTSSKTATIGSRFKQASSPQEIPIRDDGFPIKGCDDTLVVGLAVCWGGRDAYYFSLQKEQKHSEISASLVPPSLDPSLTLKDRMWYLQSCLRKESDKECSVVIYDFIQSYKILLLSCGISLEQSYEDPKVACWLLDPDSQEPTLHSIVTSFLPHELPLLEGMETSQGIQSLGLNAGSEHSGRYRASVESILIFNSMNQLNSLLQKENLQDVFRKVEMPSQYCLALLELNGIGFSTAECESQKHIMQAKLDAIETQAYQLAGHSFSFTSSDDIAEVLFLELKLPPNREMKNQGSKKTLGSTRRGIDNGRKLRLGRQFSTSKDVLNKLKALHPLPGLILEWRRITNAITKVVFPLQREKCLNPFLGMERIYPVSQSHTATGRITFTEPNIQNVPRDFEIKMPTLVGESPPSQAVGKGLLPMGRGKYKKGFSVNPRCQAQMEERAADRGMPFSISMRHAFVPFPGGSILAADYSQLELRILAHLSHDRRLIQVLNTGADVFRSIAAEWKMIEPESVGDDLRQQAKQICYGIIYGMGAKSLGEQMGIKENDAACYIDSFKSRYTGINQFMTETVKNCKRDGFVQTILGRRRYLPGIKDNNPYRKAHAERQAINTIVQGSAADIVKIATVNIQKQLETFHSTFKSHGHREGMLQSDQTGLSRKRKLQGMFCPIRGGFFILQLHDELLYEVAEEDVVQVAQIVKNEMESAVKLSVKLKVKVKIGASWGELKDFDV
# Experiment: Primer extension assay: inhibition of polymerase activity of Pol theta (molecular beacon fluorescence)
# Assay type: biochemical
# Conditions: Pol theta polymerase domain 4 nM; 15 min pre-incubation; fluorescence change over 30 min (ex 485 nm, em 535 nm); 11-point dilution series
# Procedure: The ability of the compounds of Formula (I) to inhibit polymerase activity of Pol theta was determined using the assay described below.
# A mixture of 20 uL of Pol theta polymerase domain (residues 1819-2590) at a final concentration of 4 nM in assay buffer (20 m M TRIS, pH 7.80, 50 mM KCl, 10 mM MgCl2, 1 mM DTT, 0.01% BSA, 0.01% Tween20) was added to test compounds (11-point dilution series of test compounds) except the low control wells without test compounds. The above enzyme and test compound inhibitor mixture was then incubated at room temperature for 15 min. An equal volume (20 μl) of dNTP substrate mixture (48 μM) and primed molecular beacon DNA (obtained by annealing template SEQ ID NO 2: (5′-CCTTCCTCCCGTGTCTTG-TACCTTCCCGTCA-GGAGGAAGG-3′) with 5′-TAMRA and 3′-BHQ and primer DNA (SEQ ID NO: 3; 5′-GACGGGAAGG-3′) in 10 mM Tris-HCl pH 8.0, 100 mM NaCl buffer) (96 nM) in assay buffer was added to all the test wells. The inhibition activity was measured by monitoring the fluorescence change over 30 min at 535 nm upon excitation at 485 nm. The high control (DMSO with enzyme) with high fluorescence intensity represents no inhibition of polymerase reaction while the low control (DMSO with buffer) with low fluorescence intensity represents full inhibition of polymerase activity. Slope of the reaction progress curves were used to calculate the rate of polymerization. The rates were used to determine the percent inhibition using a four-parameter inhibition model to generate IC50, Hill slope and max inhibition.
row,IC50 [nM],SMILES
1,500 to 1000,"Cc1cc(NCC(=O)N(C)c2ccccc2)nc(C)c1Cl [Example 34, 2-[(5-chloro-4,6-dimethylpyridin-2-yl)amino]-N-methyl-N phenylacetamide]"
2,200 to 500,"Cc1c(Cl)cnc(NCC(=O)N(C)c2ccccc2)c1C#N [Example 37, 2-(5-chloro-3-cyano-4-methylpyridin-2-ylamino)-N-methyl-N-phenylacetamide]"
3,200 to 500,"Cc1nc(NCC(=O)N(C)c2ccccc2)c(C#N)cc1Cl [Example 38, 2-(5-chloro-3-cyano-6-methylpyridin-2-ylamino)-N-methyl-N-phenylacetamide]"
4,< 200,"Cc1nc(NCC(=O)N(C)c2ccc(Br)cc2)c(C#N)c(C)c1Cl [Example 39, N-(4-bromophenyl)-2-(5-chloro-3-cyano-4,6-dimethyl-pyridin-2-ylamino)-N-methylacetamide]"
5,< 200,"Cc1nc(NCC(=O)N(C)c2ccc(Cl)cc2)c(C#N)c(C)c1Cl [Example 40, 2-(5-chloro-3-cyano-4,6-dimethylpyridin-2-ylamino)-N-(4-chlorophenyl)-N-methylacetamide]"
6,< 200,"Cc1nc(NCC(=O)N(C)c2ccc(F)cc2)c(C#N)c(C)c1Cl [Example 42, 2-(5-chloro-3-cyano-4,6-dimethylpyridin-2-ylamino)-N-(4-fluorophenyl)-N-methylacetamide]"

# The next lines start with the compound.
row,SMILES,IC50 [nM]
1,"CN(C(=O)CNc1cc(Cl)cc(Cl)c1)c1ccc(F)cc1 [Example 31, 2-[(3,5-dichlorophenyl)amino]-N-(4-fluorophenyl)-N-methyl-acetamide]",500 to 1000
2,"Cc1nc(NCC(=O)N(C)c2ccc(Cl)c(Cl)c2)c(C#N)c(C)c1Cl [Example 32, 2-(5-chloro-3-cyano-4,6-dimethylpyridin-2-ylamino)-N-(3,4-dichlorophenyl)-N-methylacetamide]",< 200
3,"Cc1nc(OCC(=O)N(C)c2ccc(Cl)c(Cl)c2)c(C#N)c(C)c1Cl [Example 33, 2-(5-chloro-3-cyano-4,6-dimethylpyridin-2-yloxy)-N-(3,4-dichlorophenyl)-N-methylacetamide]",< 200
4,"Cc1nc(OCC(=O)N(C)c2ccc(Br)cc2)c(C#N)c(C)c1Cl [Example 35, N-(4-bromophenyl)-2-[(5-chloro-3-cyano-4,6-dimethylpyridin-2-yl)oxy]-N-methylacetamide]",< 200
5,"Cc1nc(OCC(=O)N(C)c2ccc(Cl)cc2)c(C#N)c(C)c1Cl [Example 41, 2-[(5-chloro-3-cyano-4,6-dimethylpyridin-2-yl)oxy]-N-(4-chloro-phenyl)-N-methylacetamide]",< 200
6,"Cc1nc(OCC(=O)N(C)c2ccc(F)cc2)c(C#N)c(C)c1Cl [Example 43, 2-[(5-chloro-3-cyano-4,6-dimethylpyridin-2-yl)oxy]-N-(4-fluoro-phenyl)-N-methylacetamide]",< 200
7,"CN(C(=O)CNc1nc(C(F)(F)F)cc(C(F)(F)F)c1C#N)c1ccc2occc2c1 [Example 46, N-(benzofuran-5-yl)-2-((3-cyano-4,6-bis(trifluoromethyl)pyridin-2-yl)amino)-N-methylacetamide]",< 200
8,"[2H]C([2H])([2H])N(C(=O)CNc1nc(C(F)(F)F)cc(C(F)(F)F)c1C#N)c1ccc(F)cc1 [Example 47, 2-((3-cyano-4,6-bis(trifluoromethyl)pyridin-2-yl)amino)-N-(4-fluorophenyl)-N-(methyl-d3)acetamide]",< 200
9,"CN(C(=O)CNc1nc(C(F)(F)F)cc(C(F)(F)F)c1C#N)c1ccc(F)cc1Cl [Example 48, N-(2-chloro-4-fluorophenyl)-2-((3-cyano-4,6-bis(trifluoromethyl)pyridin-2-yl)-amino)-N-methylacetamide]",< 200
10,"CN(C(=O)CNc1nc(C(F)(F)F)cc(C(F)(F)F)c1C#N)c1ccc(F)cc1C#N [Example 49, 2-((3-cyano-4,6-bis(trifluoromethyl)pyridin-2-yl)amino)-N-(2-cyano-4-fluorophenyl)-N-methylacetamide]",500 to 1000
